Assay results as given in PubChem BioAssay (NCI).
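The compound was tested at five concentrations on cells cultured in 96-well plates, with a 48-hour exposure period. TGI: total growth inhibition.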

How the values were obtained:
Test in all cases: DTP human tumour cell line panel, 48 h
[1] = tested on: IGROV1 ovarian
[2] = tested on: MCF7 breast
[3] = tested on: MDA-MB-435
[4] = tested on: HOP-62 NSCLC
[5] = tested on: DU-145 prostate
[6] = tested on: RPMI-8226 leukemia
[7] = tested on: M14 melanoma
[8] = tested on: SF-268 CNS
[9] = tested on: OVCAR-3 ovarian
[10] = tested on: TK-10 renal
[11] = tested on: A498 renal
[12] = tested on: UACC-257 melanoma
[13] = tested on: A549 NSCLC
[14] = tested on: NCI-H522 lung
[15] = tested on: NCI/ADR-RES ovarian
[16] = tested on: LOX IMVI melanoma
[17] = tested on: NCI-H23 lung
[18] = tested on: CAKI-1 renal
[19] = tested on: HCT-116 colon
[20] = tested on: CCRF-CEM leukemia
[21] = tested on: SF-539 CNS
[22] = tested on: EKVX NSCLC
[23] = tested on: K-562 leukemia
[24] = tested on: SK-MEL-5 melanoma
[25] = tested on: RXF 393 renal
[26] = tested on: SK-MEL-2 melanoma
[27] = tested on: OVCAR-8 ovarian
[28] = tested on: UACC-62 melanoma
[29] = tested on: BT-549 breast
[30] = tested on: SW-620 colon
[31] = tested on: PC-3 prostate
[32] = tested on: NCI-H226 lung
[33] = tested on: SNB-75 CNS
[34] = tested on: NCI-H460 lung
[35] = tested on: OVCAR-5 ovarian
[36] = tested on: MOLT-4 leukemia
[37] = tested on: SK-MEL-28 melanoma
[38] = tested on: KM12 colon
[39] = tested on: SNB-19 CNS
[40] = tested on: 786-0 renal
[41] = tested on: SK-OV-3 ovarian
[42] = tested on: MDA-MB-231 breast
[43] = tested on: T-47D breast
[44] = tested on: HCT-15 colon
[45] = tested on: ACHN renal
[46] = tested on: SF-295 CNS
[47] = tested on: MALME-3M melanoma
[48] = tested on: OVCAR-4 ovarian
[49] = tested on: COLO 205 colon
[50] = tested on: SN12C renal
[51] = tested on: U251 CNS
[52] = tested on: HCC-2998 colon
[53] = tested on: SR leukemia
[54] = tested on: MDA-N
[55] = tested on: UO-31 renal
[56] = tested on: HS 578T breast
[57] = tested on: HT29 colon
[58] = tested on: HL-60(TB) leukemia

COC(=O)[C@]12CSC[C@H]1C[C@H](c1ccccc1OC)N2
TGI [1]: > 100 µM
TGI [2]: > 100 µM
TGI [3]: > 100 µM
TGI [4]: > 100 µM
TGI [5]: > 100 µM
TGI [6]: > 100 µM
TGI [7]: > 100 µM
TGI [8]: > 100 µM
TGI [9]: > 100 µM
TGI [10]: > 100 µM
TGI [11]: > 100 µM
TGI [12]: > 100 µM
TGI [13]: > 100 µM
TGI [14]: > 100 µM
TGI [15]: > 100 µM
TGI [16]: > 100 µM
TGI [17]: > 100 µM
TGI [18]: > 100 µM
TGI [19]: > 100 µM
TGI [20]: > 100 µM
TGI [21]: > 100 µM
TGI [22]: > 100 µM
TGI [23]: > 100 µM
TGI [24]: > 100 µM
TGI [25]: > 100 µM
TGI [26]: > 100 µM
TGI [27]: > 100 µM
TGI [28]: > 100 µM
TGI [29]: > 100 µM
TGI [30]: > 100 µM
TGI [31]: > 100 µM
TGI [32]: > 100 µM
TGI [33]: > 100 µM
TGI [34]: > 100 µM
TGI [35]: > 100 µM
TGI [36]: > 100 µM
TGI [37]: > 100 µM
TGI [38]: > 100 µM
TGI [39]: > 100 µM
TGI [40]: > 100 µM
TGI [41]: > 100 µM
TGI [42]: > 100 µM
TGI [43]: > 100 µM
TGI [44]: > 100 µM
TGI [45]: > 100 µM
TGI [46]: > 100 µM
TGI [47]: > 100 µM
TGI [48]: > 100 µM
TGI [49]: > 100 µM
TGI [50]: > 100 µM
TGI [51]: > 100 µM
TGI [52]: > 100 µM
TGI [53]: > 100 µM
TGI [54]: > 100 µM
TGI [55]: > 100 µM

COC(=O)[C@H]1C[C@H]1NC(=O)C(CC(=O)OCc1ccccc1)NC(=O)OCc1ccccc1 (stereo not given in full)
TGI [1]: > 100 µM
TGI [2]: > 100 µM
TGI [3]: 69.8 µM
TGI [5]: > 100 µM
TGI [6]: 50.2 µM
TGI [7]: 52.1 µM
TGI [8]: > 100 µM
TGI [10]: > 100 µM
TGI [11]: > 100 µM
TGI [12]: > 100 µM
TGI [13]: > 100 µM
TGI [14]: > 100 µM
TGI [15]: 91.5 µM
TGI [16]: > 100 µM
TGI [17]: > 100 µM
TGI [19]: > 100 µM
TGI [20]: > 100 µM
TGI [21]: > 100 µM
TGI [22]: > 100 µM
TGI [23]: > 100 µM
TGI [24]: 55.9 µM
TGI [26]: 56.9 µM
TGI [27]: > 100 µM
TGI [29]: 55.9 µM
TGI [30]: > 100 µM
TGI [31]: > 100 µM
TGI [32]: > 100 µM
TGI [33]: > 100 µM
TGI [34]: 72.4 µM
TGI [35]: > 100 µM
TGI [36]: > 100 µM
TGI [56]: > 100 µM
TGI [37]: > 100 µM
TGI [38]: 77.1 µM
TGI [39]: > 100 µM
TGI [40]: > 100 µM
TGI [41]: > 100 µM
TGI [42]: > 100 µM
TGI [43]: 98.4 µM
TGI [44]: > 100 µM
TGI [45]: > 100 µM
TGI [46]: > 100 µM
TGI [57]: > 100 µM
TGI [49]: 43.2 µM
TGI [50]: > 100 µM
TGI [51]: > 100 µM
TGI [52]: > 100 µM
TGI [58]: 39.6 µM
TGI [53]: > 100 µM
TGI [54]: > 100 µM
